Assay results: the supplement of paper PMC10011410
± gives the standard deviation of the averaged measurements.

Key:
[1] = test system: U-2 OS; assay: intracellular GSH:GSSG ratio (calculated); higher = more reduced glutathione pool; conditions: 24 h
Protocol: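 Intracellular glutathione in U-2 OS cells after 24 h compound treatment at 5, 10 and 20 uM (some at 40 and 80 uM). Total glutathione and GSSG were measured with the GSH/GSSG-Glo kit, and the GSH:GSSG ratio was calculated. Mean of five technical replicate plates.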

[2] = test system: U-2 OS; assay: relative cell count vs DMSO (cell painting) (fraction of DMSO control); higher = more cells remaining (less cytotoxic); conditions: 24 h
Method in brief: (§1)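 Cell painting used U-2 OS cells at about 1,500 per well in 384-well plates, treated by pin tool for 24 h at 37 °C, usually at six 2-fold concentrations from 20 μM to 625 nM. Cells were stained with MitoTracker, concanavalin A, phalloidin, wheat germ agglutinin, Hoechst and SYTO 14 and imaged on an Opera Phenix. Features were extracted with CellProfiler and normalized to DMSO cells on the same plate. The activity score is the Mahalanobis distance from DMSO wells; cell count is relative to DMSO wells. Values are means of four replicate plates.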

[3] = test system: U-2 OS; assay: cell viability (CellTiter-Glo) relative to DMSO (% of control); higher = more viable; conditions: 24 h
Protocol: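 Cell viability of U-2 OS cells by CellTiter-Glo after 24 h compound treatment at 5, 10 and 20 uM (some at 40 and 80 uM), measured in parallel with the glutathione assay, as percent of DMSO control. Five technical replicate plates, averaged.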

[4] = test system: U-2 OS; assay: total intracellular glutathione (GSH + GSSG) relative to DMSO (% of control); higher = more glutathione; conditions: 24 h
Protocol: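 Total intracellular glutathione (GSH + GSSG) in U-2 OS cells by GSH/GSSG-Glo after 24 h compound treatment at 5, 10 and 20 uM (some at 40 and 80 uM), as percent of DMSO control. Five technical replicate plates, averaged.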

[5] = test system: U-2 OS; assay: cell painting activity score (Mahalanobis distance from DMSO wells); higher = stronger morphological phenotype; conditions: 24 h
Method in brief: as §1

[6] = test system: U-2 OS; assay: AUC of culture confluence over time (live-cell imaging) (AUC (confluence % x time)); higher = more confluent culture (less growth inhibition)
Method in brief: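 Live-cell imaging tracked confluence of U-2 OS cells grown in F-12K medium plus 10% FBS. After seeding at 750 cells per well in 384-well plates, cells received compounds by pin tool 24 h later, mostly at 20, 10 and 5 μM, with 0.2% DMSO. Plates stayed at 37 °C and were imaged every 4 h for up to 60 h. Each value is the area under the confluence-versus-time curve.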

Structure (SMILES) | intracellular GSH:GSSG ratio ([1]; 5 µM) | intracellular GSH:GSSG ratio ([1]; 10 µM) | intracellular GSH:GSSG ratio ([1]; 20 µM) | relative cell count ([2]; 0.625 µM) | relative cell count ([2]; 1.25 µM) | relative cell count ([2]; 2.5 µM) | relative cell count ([2]; 5 µM) | relative cell count ([2]; 10 µM) | relative cell count ([2]; 20 µM) | cell viability ([3]; 5 µM) | cell viability ([3]; 10 µM) | cell viability ([3]; 20 µM) | total intracellular glutathione ([4]; 5 µM) | total intracellular glutathione ([4]; 10 µM) | total intracellular glutathione ([4]; 20 µM) | cell painting activity score ([5]; 0.625 µM) | cell painting activity score ([5]; 1.25 µM) | cell painting activity score ([5]; 2.5 µM) | cell painting activity score ([5]; 5 µM) | cell painting activity score ([5]; 10 µM) | cell painting activity score ([5]; 20 µM) | AUC of culture confluence over time ([6]; 5 µM) | AUC of culture confluence over time ([6]; 10 µM) | AUC of culture confluence over time ([6]; 20 µM) | intracellular GSH:GSSG ratio ([1]; 40 µM) | intracellular GSH:GSSG ratio ([1]; 80 µM) | relative cell count ([2]; 40 µM) | relative cell count ([2]; 80 µM) | cell viability ([3]; 40 µM) | cell viability ([3]; 80 µM) | total intracellular glutathione ([4]; 40 µM) | total intracellular glutathione ([4]; 80 µM) | cell painting activity score ([5]; 40 µM) | cell painting activity score ([5]; 80 µM) | AUC of culture confluence over time ([6]; 40 µM) | AUC of culture confluence over time ([6]; 80 µM) | relative cell count ([2]; 0.15624 µM) | relative cell count ([2]; 0.3124 µM) | cell painting activity score ([5]; 0.15624 µM) | cell painting activity score ([5]; 0.3124 µM)
CC1(C)CCC2=C(O1)c1ccccc1C(=O)C2=O | 15.5 | 11.1 | 3.75 | 1.05 | 0.993 | 1.08 | 0.933 | 0.767 | 0.227 | 79.8 ± 7.4 | 57 ± 15 | 17 ± 33 | 71.8 ± 4.9 | 56.2 ± 3.8 | 6.31 ± 1.1 | 3.9 | 4.86 | 5.01 | 5.34 | 9.42 | 18.4 | 27 | 19.8 | 20.1 |  |  |  |  |  |  |  |  |  |  |  |  |  |  |  | 
COc1ccc(N2C(=O)CC(Sc3nnc(-c4ccccc4)o3)C2=O)cc1 (configuration not stated) | 26.4 | 14.5 | 4.1 | 1.1 | 1.07 | 1.16 | 1.08 | 1.1 | 0.796 | 105 ± 6.2 | 91.8 ± 19 | 9.21 ± 6.6 | 97.4 ± 5.6 | 97.1 ± 17 | 20 ± 8 | 2.96 | 3.59 | 3.44 | 4.49 | 6.07 | 11.5 | 24.5 | 11.3 | 11.9 |  |  |  |  |  |  |  |  |  |  |  |  |  |  |  | 
CC(=O)OC1C(c2ccc(=O)oc2)C2(C)CCC3C(CCC4CC(O)CCC43C)C23OC13 (configuration not stated) | 4.48 | 3.04 | 2.21 | 0.327 | 0.27 | 0.264 | 0.242 | 0.229 | 0.224 | 21.4 ± 1.7 | 21.5 ± 2.2 | 23.7 ± 3.1 | 13.9 ± 1.2 | 12.1 ± 1.1 | 11.5 ± 0.76 | 17.1 | 16.2 | 18 | 19 | 18.5 | 18.8 | 17.6 | 19.4 | 17.6 |  |  |  |  |  |  |  |  |  |  |  |  |  |  |  | 
CNC(=O)Nc1ccc2c(c1)[C@@]1(CC2)OC(=O)N(CC(=O)N(Cc2ccc(F)cc2)[C@@H](C)C(F)(F)F)C1=O | 20.4 | 29.9 | 16.2 | 0.989 | 1.01 | 0.976 | 1.01 | 0.982 | 0.969 | 105 ± 7.5 | 98.6 ± 12 | 103 ± 9.4 | 100 ± 8.6 | 122 ± 7.3 | 90.4 ± 4 | 4.88 | 6.13 | 4.26 | 5.02 | 5.83 | 4.92 | 45.6 | 49.6 | 44.7 |  |  |  |  |  |  |  |  |  |  |  |  |  |  |  | 
O=C(OCC)/C(C(OCC)=O)=C\CCCCCCCCCCCCCC | 18.9 | 17.6 | 21.8 | 0.991 | 0.978 | 0.959 | 1.02 | 0.99 | 0.967 | 94.3 ± 6.5 | 96.7 ± 6.4 | 100 ± 8 | 100 ± 4.9 | 95.7 ± 3.5 | 93.1 ± 2 | 5.04 | 5.19 | 5.29 | 5.06 | 5.95 | 10.9 | 53.1 | 50.2 | 48.9 | 22 | 20.9 | 0.841 | 0.829 | 98 ± 6.9 | 99.2 ± 6.2 | 105 ± 4.8 | 98.9 ± 3 | 7.78 | 10.2 | 50.4 | 50.3 |  |  |  | 
O=S1(=O)CC(N2CCCC2)c2ccccc21 (configuration not stated) | 30.8 | 37.7 | 28.5 | 0.972 | 0.969 | 0.957 | 0.962 |  |  | 103 ± 3.5 | 103 ± 6.5 | 109 ± 6.8 | 97.6 ± 3.1 | 98.8 ± 6.1 | 102 ± 5.3 | 5.04 | 4.39 | 4.11 | 3.43 |  |  | 49.4 |  |  |  |  |  |  |  |  |  |  |  |  |  |  | 0.962 | 0.979 | 4.13 | 3.66
CO[C@H]1C[C@@H]2CC[C@@H](C)[C@@](O)(O2)C(=O)C(=O)N2CCCC[C@H]2C(=O)O[C@H]([C@H](C)C[C@@H]2CC[C@@H](O)[C@H](OC)C2)CC(=O)[C@H](C)/C=C(\C)[C@@H](O)[C@@H](OC)C(=O)[C@H](C)C[C@H](C)/C=C/C=C/C=C/1C | 25.7 | 24.7 | 24.9 | 0.953 | 0.926 | 0.903 | 0.956 | 0.916 | 0.852 | 87.3 ± 5 | 90.6 ± 2.9 | 80 ± 6.5 | 90.5 ± 5.3 | 93.7 ± 5.7 | 102 ± 7 | 11.4 | 12.3 | 12.1 | 10.8 | 12.1 | 11.9 | 33.6 | 34.2 | 34.8 |  |  |  |  |  |  |  |  |  |  |  |  |  |  |  | 
O=[N+]([O-])c1c(Cl)cc(Cl)c2nsnc12 | 13.9 | 6.83 | 2.56 | 0.967 | 0.626 | 0.447 | 0.222 | 0.02 | 0.0161 | 88.3 ± 13 | 52.4 ± 10 | 19.5 ± 8.6 | 116 ± 6.5 | 81.7 ± 6 | 48.7 ± 3.5 | 5.1 | 10.7 | 14.1 | 17.8 | 25.1 | 24.4 | 19.8 | 10.2 | 8 |  |  |  |  |  |  |  |  |  |  |  |  |  |  |  | 
